Structures can show the parent of a compound that is named as a salt. Where two headings read alike, the source gives them in different places.
Assays:
[1] = biological target: BIR3 domain of human XIAP (residues 252-350) (Homo sapiens (Human), UniProt P98170); experiment: XIAP in vitro competitive displacement binding assay (fluorescence polarization); conditions: for IC50: read-out: IC50 or PI Xiap: IC50
[2] = biological target: BIR3 domain of human cIAP-1 (residues 267-363) (Homo sapiens (Human), UniProt Q13490); experiment: cIAP-1 in vitro competitive displacement binding assay (fluorescence polarization; Probe A AVPIK(5&6FAM)-amide or Probe B AbuRPFK(5&6FAM)-amide)
[3] = Probe B AbuRPFK(5&6FAM)-amide, read-out: IC50 or PI cIAP1: IC50
[4] = read-out: IC50 or PI cIAP1: IC50
[5] = Probe A AVPIK(5&6FAM)-amide, read-out: IC50 or PI cIAP1: IC50
[6] = 1 h, read-out: IC50 or PI Xiap: PI
[7] = 3 h, Probe A, read-out: IC50 or PI cIAP1: PI

What does the source list for `COC[C@H]1CN[C@H](C)CN1CC(=O)N1CC(C)(c2ccccn2)c2ccc(C#N)cc21` (mixture of isomers) [Example 156, 1-{2-[(2R,5R)-2-(Methoxymethyl)-5-methylpiperazin-1-yl]acetyl}-3-methyl-3-(pyridin-2-yl)-2,3-dihydro-1H-indole-6-carbonitrile hydrochloride [mixture of diastereoisomers]]?
IC50 [1]: 1.5 µM; IC50 [2, 3]: 1.3 µM

`C[C@@H]1CN(CC(=O)N2CCc3ccc(N(C)c4ccccc4)cc32)CCN1` [Example 2, 1-[6-(Methyl-phenyl-amino)-2,3-dihydro-indol-1-yl]-2-((R)-3-methyl-piperazin-1-yl)-ethanone Trifluoroacetate salt] was tested. Which IC50 [1] did it give?
Its IC50 is 41 µM.

And the IC50 [2, 4]?
The IC50 was 79 µM.

With `C[C@@H]1CN(CC(=O)N2CCc3ccc(Nc4ccccc4)cc32)CCN1` [Example 3, 2-((R)-3-Methyl-piperazin-1-yl)-1-(6-phenylamino-2,3-dihydro-indol-1-yl)-ethanone Trifluoroacetate salt] as the compound, how does the inhibition at 99 µM ([2]; 3 h, read-out: IC50 or PI cIAP1: PI) read?
The inhibition at 99 µM was 48%.

How did the IC50 [2, 5] turn out when `C[C@@H]1CN(CC(=O)N2CCc3ccc(Cl)cc32)CCN1` [Example 4, 1-(6-Chloro-2,3-dihydro-indol-1-yl)-2-((R)-3-methyl-piperazin-1-yl)-ethanone] was run?
Its IC50 is 29 µM.

How did the inhibition at 160 µM [1, 6] turn out when `COc1ccc2c(c1)N(C(=O)CN1CCN[C@H](C)C1)CC2` [Example 5, 1-(6-Methoxy-2,3-dihydro-indol-1-yl)-2-((R)-3-methyl-piperazin-1-yl)-ethanone] was run?
Its inhibition at 160 µM is 49%.

What about the IC50 [2, 5] of the same compound?
Its IC50 is 78 µM.

How did the IC50 [2, 5] turn out when `Cc1ccc2c(c1)N(C(=O)CN1CCN[C@H](C)C1)CC2` [Example 6, 1-(6-Methyl-2,3-dihydro-indol-1-yl)-2-((R)-3-methyl-piperazin-1-yl)-ethanone] was run?
The IC50 was 95 µM.

How did the inhibition at 1600 µM ([1]; 1 h, @ 1600 μM, read-out: IC50 or PI Xiap: PI) turn out when `C[C@@H]1CN(CC(=O)N2CCc3ccc(N)cc32)CCN1` [Example 7, 1-(6-Amino-2,3-dihydro-indol-1-yl)-2-((R)-3-methyl-piperazin-1-yl)-ethanone] was run?
Its inhibition at 1600 µM is 43%.

What about the inhibition at 5000 µM ([2]; 3 h, Probe A, @ 5000 μM, read-out: IC50 or PI cIAP1: PI) of the same compound?
Its inhibition at 5000 µM is -30%.

For `C[C@@H]1CN(CC(=O)N2CCc3ccc(NS(C)(=O)=O)cc32)CCN1` [Example 8, N-{1-[2-((R)-3-Methyl-piperazin-1-yl)-acetyl]-2,3-dihydro-1H-indol-6-yl}-methane-sulfonamide], which inhibition at 160 µM [1, 6] is on record?
Its inhibition at 160 µM is 59%.

What about the inhibition at 160 µM [2, 7] of the same compound?
The inhibition at 160 µM was 46%.

`C[C@@H]1CN(CC(=O)N2CCc3cc(F)ccc32)CCN1` [Example 9, 1-(5-Fluoro-2,3-dihydro-indol-1-yl)-2-((R)-3-methyl-piperazin-1-yl)-ethanone] was tested. Which IC50 [1] did it give?
Its IC50 is 130 µM.

And the IC50 [2, 5]?
Its IC50 is 170 µM.

Which inhibition at 160 µM [2, 7] does the source give for `C[C@@H]1CN(CC(=O)N2CCc3ccc(F)cc32)CCN1` [Example 10, 1-(6-Fluoro-2,3-dihydro-indol-1-yl)-2-((R)-3-methyl-piperazin-1-yl)-ethanone] here?
Its inhibition at 160 µM is 51%.

For `C[C@@H]1CN(CC(=O)N2CCc3cc(Br)ccc32)CCN1` [Example 11, 1-(5-Bromo-2,3-dihydro-indol-1-yl)-2-((R)-3-methyl-piperazin-1-yl)-ethanone], which inhibition at 100 µM ([1]; 1 h, @ 100 μM, read-out: IC50 or PI Xiap: PI) is on record?
The inhibition at 100 µM was 59%.

And the inhibition at 100 µM [2, 7]?
The inhibition at 100 µM was 46%.

With `CC(C)[C@H]1CN[C@H](C)CN1CC(=O)N1CCc2ccc(Br)cc21` [Example 12, 1-(6-Bromo-2,3-dihydro-indol-1-yl)-2-((2S,5R)-2-isopropyl-5-methyl-piperazin-1-yl)-ethanone] as the compound, how does the IC50 [2] read?
The IC50 was less than 10 µM.

`CC(C)c1ccc2c(c1)N(C(=O)CN1CCN[C@H](C)C1)CC2` [Example 13, 1-(6-Isopropyl-2,3-dihydro-indol-1-yl)-2-((R)-3-methyl-piperazin-1-yl)-ethanone] was tested. Which IC50 [2, 5] did it give?
Its IC50 is 63 µM.

`C[C@@H]1CN(CC(=O)N2CCc3cnccc32)CCN1` [Example 14, 1-(2,3-Dihydro-pyrrolo[3,2-c]pyridin-1-yl)-2-((R)-3-methyl-piperazin-1-yl)-ethanone] was tested. Which inhibition at 99 µM ([1]; 1 h, @ 99 μM, read-out: IC50 or PI Xiap: PI) did it give?
Its inhibition at 99 µM is 53%.

What about the inhibition at 160 µM [2, 7] of the same compound?
Its inhibition at 160 µM is 46%.

What does the source list for `COC(=O)c1ccc2c(c1)N(C(=O)CN1CCN[C@H](C)C1)CC2` [Example 15, 1-[2-((R)-3-Methyl-piperazin-1-yl)-acetyl]-2,3-dihydro-1H-indole-6-carboxylic acid methyl ester]?
IC50 [1]: 19 µM; IC50 [2]: < 10 µM; IC50 [2, 4]: 6.8 µM

How did the inhibition at 77 µM ([1]; 1 h, @ 77 μM, read-out: IC50 or PI Xiap: PI) turn out when `CNC(=O)c1ccc2c(c1)N(C(=O)CN1CCN[C@H](C)C1)CC2` [Example 16, 1-[2-((R)-3-Methyl-piperazin-1-yl)-acetyl]-2,3-dihydro-1H-indole-6-carboxylic acid methylamide] was run?
Its inhibition at 77 µM is 42%.

What about the inhibition at 250 µM ([2]; 3 h, Probe A, @ 250 μM, read-out: IC50 or PI cIAP1: PI) of the same compound?
Its inhibition at 250 µM is 56%.

Which IC50 [1] does the source give for `C[C@@H]1CN(CC(=O)N2CCc3ccc(C(=O)N(C)C)cc32)CCN1` [Example 17, 1-[2-((R)-3-Methyl-piperazin-1-yl)-acetyl]-2,3-dihydro-1H-indole-6-carboxylic acid dimethylamide] here?
The IC50 was 110 µM.

What about the inhibition at 160 µM [2, 7] of the same compound?
Its inhibition at 160 µM is 44%.

What does the source list for `C[C@@H]1CN(CC(=O)N2CCc3ccc(C(=O)N4CCCC4)cc32)CCN1` [Example 18, 2-((R)-3-Methyl-piperazin-1-yl)-1-[6-(pyrrolidine-1-carbonyl)-2,3-dihydro-indol-1-yl]-ethanone]?
inhibition at 49 µM ([1]; 1 h, @ 49 μM, read-out: IC50 or PI Xiap: PI): 47%; inhibition at 49 µM ([2]; 3 h, Probe A, @ 49 μM, read-out: IC50 or PI cIAP1: PI): 43%

With `C[C@@H]1CN(CC(=O)N2CC(C)(C)c3c(Cl)cccc32)CCN1` [Example 19, 1-(4-Chloro-3,3-dimethyl-2,3-dihydro-indol-1-yl)-2-((R)-3-methyl-piperazin-1-yl)-ethanone] as the compound, how does the IC50 [1] read?
Its IC50 is 150 µM.

And the IC50 [2, 5]?
Its IC50 is 17 µM.

Which IC50 [2, 5] does the source give for `C[C@@H]1CN(CC(=O)N2CCc3ccc(C(F)(F)F)cc32)CCN1` [Example 22, 2-((R)-3-Methyl-piperazin-1-yl)-1-(6-trifluoromethyl-2,3-dihydro-indol-1-yl)-ethanone] here?
The IC50 was 36 µM.

`C[C@@H]1CN(CC(=O)N2CCc3ccc(S(C)(=O)=O)cc32)CCN1` [Example 30, 1-(6-Methane-sulfonyl-2,3-dihydro-indol-1-yl)-2-((R)-3-methyl-piperazin-1-yl)-ethanone hydrochloride salt] was tested. Which inhibition at 99 µM ([2]; 3 h, Probe A, @ 99 μM, read-out: IC50 or PI cIAP1: PI) did it give?
Its inhibition at 99 µM is 60%.

Which IC50 [2, 3] does the source give for `COC[C@H]1CN[C@H](C)CN1CC(=O)N1CC(C)(C)c2cnc(CC(C)C)cc21` [Example 72, 1-(6-Isobutyl-3,3-dimethyl-2,3-dihydro-pyrrolo[3,2-c]pyridin-1-yl)-2-((2R,5R)-2-methoxymethyl-5-methyl-piperazin-1-yl)-ethanone] here?
Its IC50 is 0.31 µM.

For `COC[C@H]1CN[C@H](C)CN1CC(=O)N1CC(C)(C)c2cnc(Cc3ccc(OC)cc3)cc21` [Example 98, 2-[(2R,5R)-2-(Methoxymethyl)-5-methylpiperazin-1-yl]-1-{6-[(4-methoxyphenyl)methyl]-3,3-dimethyl-1H,2H,3H-pyrrolo[3,2-c]pyridin-1-yl}ethan-1-one, hydrochloride salt], which IC50 [2, 3] is on record?
Its IC50 is 0.023 µM.

With `COC[C@H]1CN[C@H](C)CN1CC(=O)N1CC(C)(Cc2ccccc2)c2ccc(Cl)cc21` (stereo partly drawn) [Example 107, 1-(3-Benzyl-6-chloro-3-methyl-2,3-dihydro-1H-indol-1-yl)-2-[(2R,5R)-2-(methoxymethyl)-5-methylpiperazin-1-yl]ethan-1-one, hydrochloride salt] as the compound, how does the IC50 [2, 3] read?
The IC50 was 0.55 µM.

`CC1(C)CN(C(=O)CN2CCNC(C(F)(F)F)C2)c2cc(Cc3ccccc3)ncc21` (stereo not shown) [Example 113, 1-{6-Benzyl-3,3-dimethyl-1H,2H,3H-pyrrolo[3,2-c]pyridin-1-yl}-2-[3-(trifluoromethyl)piperazin-1-yl]ethan-1-one] was tested. Which inhibition at 100 µM ([2]; 3 h, Probe B, read-out: IC50 or PI cIAP1: PI) did it give?
Its inhibition at 100 µM is 6%.

Which IC50 [2, 3] does the source give for `CC1(C)CN(C(=O)CN2CCNC(CF)C2)c2cc(Cc3ccccc3)ncc21` (stereo not shown) [Example 114, 1-{6-Benzyl-3,3-dimethyl-1H,2H,3H-pyrrolo[3,2-c]pyridin-1-yl}-2-[3-(fluoromethyl)piperazin-1-yl]ethan-1-one] here?
The IC50 was 1.5 µM.

Which IC50 [2, 3] does the source give for `CC1(C)CN(C(=O)CN2CCN[C@H](CF)C2)c2cc(Cc3ccccc3)ncc21` [Example 115, 1-{6-Benzyl-3,3-dimethyl-1H,2H,3H-pyrrolo[3,2-c]pyridin-1-yl}-2-[(3S)-3-(fluoromethyl)piperazin-1-yl]ethan-1-one] here?
The IC50 was 0.67 µM.

`CC1(C)CN(C(=O)CN2CCN[C@@H](CF)C2)c2cc(Cc3ccccc3)ncc21` [Example 116, 1-{6-Benzyl-3,3-dimethyl-1H,2H,3H-pyrrolo[3,2-c]pyridin-1-yl}-2-[(3R)-3-(fluoromethyl)piperazin-1-yl]ethan-1-one] was tested. Which IC50 [2, 3] did it give?
The IC50 was 1.9 µM.

How did the IC50 [1] turn out when `COC[C@H]1CN[C@H](C)CN1CC(=O)N1C[C@@](C)(c2ccccc2)c2ccc(C#N)cc21` [Example 139, (3S)-1-{2-[(2R,5R)-2-(Methoxymethyl)-5-methylpiperazin-1-yl]acetyl}-3-methyl-3-phenyl-2,3-dihydro-1H-indole-6-carbonitrile] was run?
The IC50 was 0.23 µM.

`C[C@@H]1CN(CC(=O)N2CC(C)(C)c3ncc(C(C)(F)F)cc32)[C@@H](CN2CCCC2=O)CN1` [Example 188, 1-{[(2R,5R)-1-{2-[6-(1,1-Difluoroethyl)-3,3-dimethyl-1H,2H,3H-pyrrolo[3,2-b]pyridin-1-yl]-2-oxoethyl}-5-methylpiperazin-2-yl]methyl}pyrrolidin-2-one dihydrochloride] was tested. Which IC50 [2, 4] did it give?
The IC50 was 0.04 µM.

Which IC50 [2] does the source give for `C[C@@H]1CN(CC(=O)N2CC(C)(C)c3ncc(Cc4ccc(F)cc4)cc32)CCN1` [Example 265, 1-[6-(4-Fluoro-benzyl)-3,3-dimethyl-2,3-dihydro-pyrrolo[3,2-b]pyridin-1-yl]-2-((R)-3-methyl-piperazin-1-yl)-ethanone] here?
Its IC50 is less than 10 µM.

And the IC50 [2, 4]?
The IC50 was 0.041 µM.

Source: patent US9018214B2, “Bicyclic heterocycle compounds and their uses in therapy” (Astex Therapeutics Limited, priority 2011, dated 2015)
